Assay [1] deals with leaky scanning from cap-proximal AUG in HEK293T cells. The assay can be described thus: Leaky scanning GFP reporter with cap-proximal upstream AUG, western blot. Conditions: upstream AUG with 16 nt 5′UTR. The class given is cell-based, human. An excerpt:
FIGS. 1A-G: Identification and initial characterization of eIF1-eIF4G1 inhibitors using a high-throughput drug screen (HTS). (1A) A flowchart describing the steps of the recombinant eIF1-eIF4G1 split-RL HTS. (1B) Selection of drugs that inhibit leaky scanning. HEK293T cells were transfected with a short 5′UTR bearing GFP reporter gene described on the top, treated with the indicated HTS hits, and then analyzed by western blot with GFP antibody. US and DS denote upstream and downstream AUG initiation sites, respectively. (1C) A graph showing the change in the ratio of the upstream and downstream AUG following treatment with the indicated drugs. (1D) The chemical structure of the eIF1-eIF4G1 inhibitors, i14G1-10 and i14G1-12. (1E) His-tagged eIF4G1 and His-tagged eIF1 were expressed in BL21 bacteria and purified using nickel NTA beads. Purified His-tagged eIF4G1 and His-tagged eIF1 were incubated with the indicated doses of either i14G1-10 (0-256 μM) or i14G1-12 (0-256 μM) for 5 minutes, followed by fluorescence measurement. For eIF4G1 excitation was at 280 nm and emission was at 350 nm. For eIF1 excitation was at 274 nm and emission was at 304 nm. The data shown represent three independent replicates. IC50 was calculated using Graphpad prism 9. (1F-1G) Western blots of GST pull down. […]
To address the functional significance of the temporal eIF1-eIF4G1 interaction, the inventors set out to develop pharmacological tools against this complex. To this end, the split-Renilla luciferase (RL) complementation assay previously found to be an efficient readout of eIF1 and eIF4G1 interaction in mammalian cells and a highly sensitive and powerful approach for the identification of protein-protein inhibitors was used. […] As knockdown of either eIF1 or eIF4G1 and interference with eIF1-eIF4G1 interaction led to the arrest of leaky scanning from cap-proximal AUG, the selected compounds were analyzed for their effect on initiation from cap-proximal AUG. […]
For orientation: In western blotting, separated proteins are transferred to a membrane and probed.

In assay [2] the target is rabbit reticulocyte lysate. The assay can be described thus: In-vitro translation of capped firefly luciferase mRNA. The class given is biochemical. Conditions: 10 minutes pre-incubation, 90 minutes at 30° C.

With `Cn1ccnc1S/C(=C/C=C(C#N)C#N)c1ccc(Cl)cc1` [i14G1-12], the “upstream to downstream AUG ratio (leaky scanning)” value in assay [1] is given as “selectively changed the upstream to downstream ratio by inhibiting leaky scanning from the cap-proximal AUG”. Also, 4.14 µM corresponded to half-maximal inhibition in assay [2] (IC50).
In the same order, the values of `O=C(/C=C/Sc1ccc(C(F)(F)F)cn1)c1ccccc1` [i14G1-10] are “selectively changed the upstream to downstream ratio by inhibiting leaky scanning from the cap-proximal AUG” and 5.44 µM.

The IC50 is the concentration that gives 50% inhibition. The low end stands for greater potency, the high end for weaker potency.

Values taken from patent US20250090510A1, “eIF4G1-eIF1 INHIBITORS AND USE THEREOF” (YEDA RESEARCH AND DEVELOPMENT CO. LTD., priority 2022, published 2025).
